Test results reported in article PMC11623267, “Inhibitors of malaria parasite cyclic nucleotide phosphodiesterases block asexual blood-stage development and mosquito transmission” (Science Advances, 2024).
Where two headings read alike, the source gives them in different places.

Key:
[1] = molecular target: T1, human PDE5A1 (Homo sapiens, UniProt O76074); experiment: Human PDE5 selectivity SPA; assay type: biochemical; conditions: IC50 PDE5A1 / IC50 PDEβ schizont lysates
T1 construct: GST (glutathione S-transferase); purchased BPS Bioscience BPS-60050
Description: (§1) The selectivity of the compounds on the parasite PDEs over the two human isoforms PDE5A1 and PDE6C was measured through a dose-response assay of their hydrolytic activity in presence of the compounds. Similarly to the parasite lysates, an SPA was carried out with the recombinant purified human glutathione S-transferase–tagged PDE5A1 or PDE6C (BPS Bioscience, BPS-60050 and BPS-60062) prepared in PDE assay buffer [10 mM tris-HCl (pH 7.4), 10 mM MgCl2, bovine serum albumin (0.1 mg/ml), and 0.05% Tween 20] at a concentration of 648 pg of enzyme per 50 μl of total volume per well. To determine the IC50 of the compounds, threefold serial dilutions in duplicate were performed. Briefly, the assays were carried out in flexible 96-well plates (PerkinElmer, 1450-401) by incubating the enzyme with the compounds and 5 μl of 200 nM cGMP dilution [[^3H]-cNMP tracer (PerkinElmer, cGMP-NET337250UC) in PDE assay buffer] to a total volume of 50 μl for 45 min at 37°C. The reactions were terminated by addition of 25 μl of PDE SPA beads (PerkinElmer, RPNQ0150), and after 20 min of incubation at room temperature, scintillation was measured using a Wallac 1450 Microbeta Counter (PerkinElmer) for 30 s. […] The selectivity of the compounds was expressed as the fold change in the IC50 obtained for PDE5A1 or PDE6C and the IC50 for the P. falciparum PDEβ schizont lysates.

[2] = test system: P. falciparum stage V gametocytes (male gamete formation); experiment: Exflagellation (male gamete formation) inhibition assay; assay type: cell-based, Plasmodium falciparum; conditions: 2 μM, 48 hours
Description: The exflagellation inhibition assay was performed by capturing movement of exflagellation centers over time by video microscopy [adapted from a reported protocol ([52])]. For this carry-over format, mature stage V gametocytes were treated with 2 μM of each compound for 48 hours before induction of exflagellation in the presence of compound. To evaluate compound dose response, gametocytes were treated similarly at a set of concentrations representing a fourfold serial dilution. Mature gametocyte cultures (>95% stage V; 500 μl) were centrifuged at 3500 rpm for 30 s, and the pellet was resuspended in 30 μl of ookinete medium [RPMI 1640 medium containing L-glutamine (Sigma-Aldrich, R6504), gentamycin (0.024 mg/ml; HyClone, SV30080.01), 202 μM hypoxanthine (Sigma-Aldrich, H9636), 25 mM Hepes (Sigma-Aldrich, H4034), 0.2% glucose (Sigma-Aldrich, G6152), and 0.5% (w/v) AlbuMAX II (Invitrogen, Paisley, UK), supplemented with 100 μM XA and 20% human serum]. The activated culture (10 μl) was introduced into a Neubauer chamber and placed on the microscope platform to settle homogenously. Time was noted as time zero (T0), and the chamber was incubated at room temperature. Movement was recorded by video microscopy using a Carl Zeiss NT 6V/10W Stab microscope, fitted with a MicroCapture camera at 10× magnification, and then quantified by a semiautomated method, a modification of the method described previously ([53]). A series of 15 videos of 8 to 10 s each were captured at random locations between 15 and 22.5 min after incubation. Each video was analyzed using Icy bioimage analysis software to quantify the number of exflagellating centers. Compound IC50 values were determined with nonlinear curve fitting (GraphPad Prism 6), normalized to maximum and minimum inhibition.

[3] = test system: P. falciparum stage V gametocytes (female gamete formation); experiment: Female gamete formation inhibition assay; assay type: cell-based, Plasmodium falciparum; conditions: 2 μM, 48 hours
Description: Mature gametocytes (>95% stage V) were treated with compounds (2 μM) for 48 hours before stimulating female gamete formation. To evaluate compound dose response, gametocytes were treated similarly at set concentrations representing a fourfold serial dilution. Female gamete activation was induced by both a temperature drop and the addition of 100 μM XA. Monoclonal anti-Pfs25 antibody (BEI Resources, catalog number MRA-28; 1:1000 dilution) conjugated to fluorescein isothiocyanate was used to detect female gametes. Image acquisition was performed using a Zeiss Axio Lab.A1 epifluorescence microscope with a 100/1.4 numerical aperture oil immersion objective and a Zeiss Axiocam 202 mono digital camera. Using a 100× objective, 30 images were taken per sample and analyzed manually. The number, size, roundness, and intensity of fluorescence of activated female gametocytes were evaluated. Compound IC50 values were determined with nonlinear curve fitting (GraphPad Prism 6), normalized to maximum and minimum inhibition.

[4] = test system: P. falciparum stage IV/V gametocytes; experiment: LDH-based gametocyte viability assay; assay type: cell-based, Plasmodium falciparum; conditions: stage IV to V gametocytes
Description: The pLDH assay was performed on late (>95% stage IV/V) gametocytes. Compound dilutions were placed in triplicate in 96-well plates in a final volume of 100 μl per well. DHA and MMV048 were used as positive drug controls. The gametocyte cultures (100 μl per well) were added to the 96-well plates to achieve a final gametocytemia and hematocrit of 2 and 1%, respectively, in a total incubation volume of 200 μl. Plates were incubated at 37°C for 72 hours, followed by the replacement of spent medium with drug-free culture medium (75% medium change) ([54], [55]). Plates were then incubated for a further 72 hours before assessing viability by measuring pLDH activity. Gametocyte viability was determined spectrophotometrically by measuring the activity of pLDH, according to a modified version of a published protocol ([56]). Briefly, 100 μl of Malstat reagent [0.21% (v/v) Triton X-100, 222 mM L-(+)-lactic acid, 54.5 mM tris, 0.166 mM APAD (Sigma-Aldrich, A5251), adjusted to pH 9 with 1 M NaOH] was transferred into a clean 96-well plate. A fixed volume of 20 μl of parasite suspension per well was added to the Malstat plate, followed by the addition of 25 μl of PES/NBT (0.239 mM phenazine ethosulfate and 1.96 mM nitro blue tetrazolium chloride). Absorbance was measured with a Multiskan Ascent 354 multiplate scanner (Thermo LabSystems, Finland) at 620 nm.

[5] = molecular target: T2, human PDE6C (Homo sapiens, UniProt P51160); experiment: Human PDE6 selectivity SPA; assay type: biochemical; conditions: IC50 PDE6C / IC50 PDEβ schizont lysates
T2 construct: GST (glutathione S-transferase); purchased BPS Bioscience BPS-60062
T2 sequence (P51160 whole entry): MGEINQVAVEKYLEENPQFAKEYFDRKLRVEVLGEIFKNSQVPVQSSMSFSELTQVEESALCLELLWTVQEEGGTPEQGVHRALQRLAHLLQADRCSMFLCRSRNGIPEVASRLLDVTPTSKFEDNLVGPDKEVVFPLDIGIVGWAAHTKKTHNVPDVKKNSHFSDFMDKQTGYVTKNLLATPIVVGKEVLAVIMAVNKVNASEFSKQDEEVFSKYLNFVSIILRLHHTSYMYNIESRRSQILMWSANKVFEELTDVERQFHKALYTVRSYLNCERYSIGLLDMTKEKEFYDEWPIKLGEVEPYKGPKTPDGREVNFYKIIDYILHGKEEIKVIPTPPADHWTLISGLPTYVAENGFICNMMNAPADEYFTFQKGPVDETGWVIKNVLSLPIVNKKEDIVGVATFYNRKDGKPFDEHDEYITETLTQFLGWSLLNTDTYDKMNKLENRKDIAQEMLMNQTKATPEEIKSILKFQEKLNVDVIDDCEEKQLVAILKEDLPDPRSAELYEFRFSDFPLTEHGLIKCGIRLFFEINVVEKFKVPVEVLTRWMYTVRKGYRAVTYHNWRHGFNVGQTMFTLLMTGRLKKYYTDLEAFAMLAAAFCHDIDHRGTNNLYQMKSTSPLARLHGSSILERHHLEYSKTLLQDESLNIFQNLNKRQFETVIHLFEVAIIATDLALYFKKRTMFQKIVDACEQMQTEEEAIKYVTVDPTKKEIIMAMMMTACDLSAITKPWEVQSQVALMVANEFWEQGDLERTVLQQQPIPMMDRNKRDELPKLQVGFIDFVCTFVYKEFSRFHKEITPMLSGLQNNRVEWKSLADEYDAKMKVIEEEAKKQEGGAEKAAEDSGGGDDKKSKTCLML
Description: as §1

[6] = test system: P. falciparum clinical isolates from Tororo and Busia Districts of Uganda; experiment: Ex vivo 72-hour SYBR Green assay, Ugandan clinical isolates; assay type: cell-based, Plasmodium falciparum; conditions: 47 Ugandan isolates
Description: Clinical isolates were from the Tororo District of Uganda, located in the central-eastern part of the county near the Kenya border. Tororo and surrounding areas have high-intensity, year-round malaria transmission. […] Patients reporting use of antimalarial treatment within the previous 30 days or with evidence of an infection with other Plasmodium species were excluded. Informed consent was obtained from patients and/or primary care givers (depending on age); children aged 8 to 17 years provided assent. Two to 5 ml of blood was collected by venipuncture in a heparin tube. Samples were delivered to the adjacent IDRC laboratory at Tororo District Hospital or transported by car from Masafu Hospital on the day of collections for storage of blood spots on filter paper (for isolation of nucleic acids) and initiation of ex vivo culture of malaria parasites. Treatment involved a standard therapeutic regimen for uncomplicated falciparum malaria, which was a 3-day course of the artemisinin-based combination therapy (ACT), artemether-lumefantrine. In Uganda, at the time of sampling, there was widespread resistance to the antifolate drugs due to mutant pfdhfr/pfdhps alleles. […] Chloroquine was prepared at 10 mM in water. Stock solutions were stored at −20°C. Working solutions were freshly prepared from a single aliquot within 4 hours of the susceptibility test and stored at 4°C.
(§2) Samples were delivered to the adjacent IDRC laboratory at Tororo District Hospital or transported by car from Masafu Hospital on the day of collection for storage of blood spots on filter paper (for isolation of nucleic acids) and initiation of ex vivo culture of malaria parasites. […] Before assay, 10 mM antimalarial stock compounds were diluted as necessary in DMSO and stored at −20°C. […] Compounds were serially diluted threefold in a 96-well assay plate in complete medium to a final volume of 50 μl, in columns 1 to 10, with concentrations optimized to capture full dose-response curves. Column 11 contained compound-free controls, while column 12 contained uninfected human RBC controls. Parasite culture (150 μl) was added to columns 1 to 11 of the assay plate with a final volume of 200 μl per well, 0.2% parasitemia, and 2% hematocrit. […] Thawed plates were incubated with SYBR Green lysis buffer for 1 hour in the dark as previously reported ([62]). Fluorescence was quantified using a BMG Fluostar Optima plate reader at an excitation of 485 nm and an emission of 530 nm, and data were plotted using GraphPad Prism 7. The data were curve fit with a variable slope function to estimate IC50 values. For each isolate, a Z′ factor to assess assay quality was calculated from positive controls (eight drug-free wells) and negative controls (eight parasite-free, red cell control wells). Z′ values over 0.5 were considered good assays, but each curve was also examined by eye for suitability. Some assays with Z′ below 0.5 may be considered valid depending on factors such as the SE of the curve-fit IC50.

[7] = test system: P. falciparum 3D7; experiment: Ex vivo 72-hour SYBR Green assay, 3D7 control (Uganda); assay type: cell-based, Plasmodium falciparum; conditions: Ugandan ex vivo assay control; read-out: EC50 lab strain 3D7
Description: as §2

[8] = test system: HepG2 cells; experiment: HepG2 cytotoxicity; assay type: cell-based
Description: Table 1. Key activity data for the three main chemical subseries against ABS parasites, parasite fractions, and HepG2 cells. ND, not determined; ×/÷ is the geometric mean with geometric SD. | column: HepG2 EC50 (nM) (selectivity index)

[9] = test system: P. falciparum Dd2; experiment: Ex vivo 72-hour SYBR Green assay, Dd2 control (Uganda); assay type: cell-based, Plasmodium falciparum; conditions: Ugandan ex vivo assay control; read-out: EC50 lab strain Dd2
Description: as §2

[10] = test system: cGMP-PDE activity in gametocyte lysates (PDEα, PDEδ); experiment: cGMP hydrolysis SPA in stage IV/V gametocyte membrane lysates; assay type: biochemical, Plasmodium falciparum; conditions: gametocyte lysate; geometric mean ×/÷ geometric SD
Description: cGMP signaling is known to play an essential role in gametogenesis in Plasmodium ([19], [20], [28]). We therefore tested the effects of all newly synthesized analogs for their ability to inhibit cGMP hydrolysis in crude gametocyte membrane preparations. […] S5A. These findings were also consistent with our enzyme-linked immunosorbent assay (ELISA)–based measurement of elevated cGMP levels in gametocytes following incubation with an example of each subseries (Fig. 2A). […] The levels of cAMP detected in gametocytes were similar in dimethyl sulfoxide (DMSO)–, XA-, and inhibitor-treated samples, and we could detect little or no cAMP hydrolysis in mature gametocytes (fig. S5B). […]
The cyclic nucleotide hydrolytic activity of membrane-associated parasite PDE enzymes was measured by a scintillation proximity assay (SPA) ([18]) using lysates of mature P. falciparum schizonts or stage IV/V gametocytes. […] The IC50 values for the compounds were determined using threefold serial dilutions in duplicate. […] The reactions were terminated by addition of 25 μl of PDE SPA beads (PerkinElmer, RPNQ0150), and after 20 min of incubation at room temperature, scintillation was measured using a Wallac 1450 Microbeta Counter (PerkinElmer) for 30 s. […]

SMILES | Selectivity against human PDE5 [1] [fold] | % inhibition of exflagellation at 2 μM [2] [%] | % inhibition of female gamete formation at 2 μM [3] [%] | % inhibition gametocyte viability at 15 μM [4] [%] | Selectivity against human PDE6 [5] [fold] | EC50 ([6]; read-out: EC50 clinical isolates, Gmean (geometric mean)) [µM] | EC50 ([6]; read-out: EC50 clinical isolates, Median) [µM] | EC50 [7] [µM] | EC50 [8] [µM] | EC50 [9] [µM] | IC50 [10] [µM]
CCc1c2nc(-c3cc(-c4ccccc4)cnc3OCC(C)C)[nH]c(=O)c2nn1CCOC [SAL-0010028] | 773 | 18.6 ± 15.8 | 6.9 ± 2.6 | 57.1 ± 27.0 | – | – | – | – | – | – | –
CCCCOc1ncc(Br)cc1-c1nc2c(CC)n(CCOC)nc2c(=O)[nH]1 [SAL-0010039] | – | 0 | 20.7 ± 2.3 | 0 | 338 | – | – | – | – | – | –
CCNC(=O)c1cnc(OCC(C)C)c(-c2nc3c(C(C)C)n[nH]c3c(=O)[nH]2)c1 [SAL-0010333] | – | – | – | – | – | 0.167 | 0.16 | 0.223 | > 25 | 0.181 | 0.0772 ± 0.0018
